The source of these data is publication PMC4047216 (European journal of pharmacology, 2014).

The conditions of data set [1]: ref Saadeddin et al., 2004; cited from earlier work.
A further data set deals with HP-LTLC cells. Put plainly: MTT combination of VN/14-1 with thapsigargin, Chou-Talalay analysis. Type of data set: cell-based, human. To be noted: in combination VN/14-1 + thapsigargin.

Consider `CC1=C(/C=C/C(C)=C/C=C/C(C)=C/C(=O)O)C(C)(C)CCC1` [ATRA], for which the “Oral bioavailability (F)” value in data set [1] is reported as ~ 40%.

With `C/C=C(/C)C(=O)O[C@H]1C(C)=C2[C@H]([C@@H]1OC(=O)CCCCCCC)[C@@](C)(OC(C)=O)C[C@H](OC(=O)CCC)[C@@]1(O)[C@H]2OC(=O)[C@@]1(C)O` [thapsigargin], the “DRI (dose reduction index)” value turned out to be 11.498 in the data set on HP-LTLC cells (50% inhibition), 31.584 in the data set on HP-LTLC cells (75% inhibition) and 172.494 in the data set with HP-LTLC cells (95% inhibition).
